Measured values taken from patent US20140322315A1, “CYSTEAMINE AND/OR CYSTAMINE FOR TREATING ISCHEMIC INJURY” (The Regents of the University of California, priority 2011, published 2014).
Where “and” joins values, the source holds several entries; their conditions need not be identical. Equal values may be shown once. Entries after “also recorded” stand apart in the source; their conditions may differ.

Tests used:
subjects with NAFLD = experiment: Pilot study of EC-cysteamine in children with NAFLD: ALT, AST, BMI, leptin, responders; format: in vivo, human; settings: for mean AST / mean ALT: all study subjects; for mean AST: baseline 60.9 IU/L; for mean ALT: baseline 123 IU/L; for mean leptin level: responders, baseline 21.3 ng/mL
From the text: (§1) Eleven children ≧10 years, with biopsy-proven NAFLD and an alanine aminotransferase (ALT) level ≧60 IU/L, were enrolled. They were either newly diagnosed or had not received specific therapy for NAFLD such as vitamin E or insulin-sensitizing drugs for at least 3 months before entering the study. All had undertaken standard of care lifestyle changes involving diet and exercise for more than 3 months. The study's primary outcome measure was normalization (≦40 IU/L) or 50% reduction in baseline serum ALT at 24 weeks of EC-cysteamine therapy; these subjects were deemed responders.
(§2) Subjects were treated for 24 wks and remained monitored for 24 weeks following its discontinuation. The mean EC-cysteamine dose ingested was 654 mg twice daily or 15.2 mg/kg/day (median dose 900 mg) for 24 wks.
(§3) During the pilot study blood was collected at pre-defined intervals. Serum was stored at −80° C. until time of assay. Adequate serum volumes were available in 10 of the 11 subjects with NAFLD and only up to 16 weeks post-treatment.

circulating leukocytes = settings: Dohil et al., J. Pediatr 2006; cited from earlier work
adiponectin [1] = experiment: Adiponectin secretion by adipose tissue explants / isolated fat cells cultured with cysteamine; format: cell-based; settings: 90 μM cysteamine, 45 min; p=0.002
Protocol: Fat biopsy adipose tissue (AT) samples were collagenase digested×1 hr at 37° C. in a rotating waterbath. Digested AT was then filtered through 425 μm nylon mesh to separate fat cells. Isolated fat cells (FC) were twice washed in physiologic salts buffer (Phillips 2008), filtered and twice washed again. FC were spun at 50×g to concentrate. 1 ml FC were resuspended in 9 ml of defined culture media (Phillips 2008) and FC were allowed to recover×10 hrs overnight at 37° C.
Adipocytes were isolated and allowed to recover×overnight then cultured with or without 90 μM cysteamine and media collected at the following time points (45, 90, 180, 24 hr). Western Blot analysis of 20 μl of media was performed with non-reducing 5× Loading buffer. […] The blot was washed and incubated with a secondary antibody (Goat anti-mouse IR 800) and densitometry measured on a LICOR densitometer. […]
To determine the time course of cysteamine effects on adiponectin, media was changed and FC were resuspended in 9 ml of defined media ±90 μM cysteamine. FC content and secretion of adiponectin into the media was assessed in duplicate culture at 0, 45, 90, 180 minutes and 24 hr. […] Signal detection and quantitative analysis was completed using the LiCOR Odyssey Machine (LiCOR, Lincoln, Nebr.). Multimeric content of cellular adiponectin was determined by dividing the AU for the multimer by the total AU per sample. […]

adiponectin [2] = experiment: Serum total and multimeric adiponectin in subjects with NAFLD treated 24 weeks with EC-cysteamine; format: in vivo, human
From the text: as §1, §2, §3
Total and multimeric adiponectin levels were measured in serum taken from: (1) subject with NAFLD collected at 0 and 24 wks of cysteamine therapy and again 16 wks after stopping therapy (i.e., 40 weeks); (2) pretreated 0-week subjects with NAFLD and adults without NAFLD at room temperature and at 37° C. and also after incubation with cysteamine 90 μM for 1 hour at 37° C.; and (3) pretreated 0-week subjects with NAFLD before and after incubation with cysteamine at varying concentrations (15, 30, 45, 60, 90, 120 μM) for 1 hour at 37° C. to establish dose-response profile.
Sodium dodecyl sulfate polyacrylamide gel electrophoresis (SDS-PAGE) was performed according to standard Laemmli's method. Sample buffer for non-reducing, non-heat denaturing conditions contained 3% SDS; 50 mmol/1 Tris-HCL, pH 6.8 and 20% glycerol. Proteins were separated using 3-8% Tris-Acetate Gels (Invitrogen, Carlsbad Calif.) with Tris-Acetate running buffer per manufacturer instructions. For immunoblotting, proteins were transferred to nitrocellulose membranes. Membranes were washed with Tween (Tris-buffered Saline, 0.1% […]) and incubated with monoclonal antibody (1:500 BD Transduction Laboratories, San Diego, Calif.). After washing with Tris-buffered saline with 0.1% Tween (4×5 min) membranes were incubated with L-COR secondary antibodies (LI-COR Biotechnology, Lincoln Nebr.) at 1:20,000. Adiponectin multimers were detected and quantified using the LICOR imager and software analysis program. Relative distribution of adiponectin multimers was determined by dividing band density by total density (cellular adiponectin) or by total adiponectin as determined by ELISA (Millipore, Billerica, Mass.). The percentage of adionectin multimer was then multiplied by the total adiponectin level to calculate absolute oligomer value.

[3] = tested on: LAD artery ligation ischemia/reperfusion; experiment: Myocardial ischemia/reperfusion (LAD artery ligation) in mice: infarct area, echocardiography; format: in vivo, mice (C57BL/6); design: IA (Ischemic Area): unit not given beside the values
Protocol: To analyze ischemic damage and treatment with cysteamine a study in mice (C57BL/6-Male-12 weeks, 25 g) that are either pre-treated or naïve to cysteamine bitartrate was performed as follows.
Pre-treated animals received intra-peritoneal cysteamine, 60 mg/kg twice (120 mg/kg/day) 2 hours before surgery for LAD artery ligation. Following a 60 minute ligation period the obstruction was removed and another dose of cysteamine was given immediately at the time of reperfusion and also twice daily injections for 4 days following reperfusion. A control group received the same volumes of control IV solution injected instead of cysteamine. Acceptable volumes of blood were collected at baseline, and at predetermined time points after the ischemic insult in order to determine levels of surrogate markers of inflammation and plasma cysteamine. […] Before sacrifice, the LAD was re-occluded and Evan's Blue was injected through JVC in order to delineate the non-ischemic area. […] Echocardiography provided ventricular volume data as well as wall function. Hemodynamic studies provided muscle contractility data (specifically systolic data).
So far seven mice were studied. Four received control solution and 3 received cysteamine. […] This is a reduction of 13%.

For `NCCS` [cysteamine, Cysteamine], the “responders (ALT normalization ≦40 IU/L or 50% reduction at 24 weeks)” value (subjects with NAFLD; 24 weeks EC-cysteamine therapy, subjects with serum analyzed) was “Seven of the 10”, the “mean AST” value (subjects with NAFLD; 24 weeks of treatment, P=0.001) was 32 IU/L and the “mean ALT” value (subjects with NAFLD; 24 weeks of treatment, P=0.003) was 55 IU/L. The “mean AST” value (subjects with NAFLD; 40 weeks (16 weeks off therapy), P=0.012) was 35 IU/L, the “mean ALT” value (subjects with NAFLD; 40 weeks (16 weeks off therapy), P=0.055) was 71 IU/L and the mean leptin level (subjects with NAFLD; 24 weeks, P=0.04) was 15.7 ng/mL. For the same compound, the mean leptin level (subjects with NAFLD; 40 weeks) was 19.5 ng/mL, the “intracellular cystine levels in circulating leukocytes” value (circulating leukocytes) was “lowering” and the “total adiponectin, treated vs untreated” value (adiponectin [1]) was “Significant difference”. For the same compound, the “all sub-forms (multimer forms) of adiponectin, change from baseline” value (adiponectin [2]; 24 weeks of oral EC-cysteamine) was “increased”, the “total adiponectin, baseline vs 40 wks” value (adiponectin [2]; 40 weeks (therapy stopped at 24 weeks)) was “No significant difference” and the “relative proportion of HMW in total adiponectin” value (adiponectin [2]; after 24 weeks cysteamine therapy, baseline 12.2%, P=0.02) was “increased significantly”. For the same compound, the “relative proportion of LMW in total adiponectin” value (adiponectin [2]; after 24 weeks cysteamine therapy, baseline 14.1%) was “remained unchanged”, the “relative proportion of MMW in total adiponectin” value (adiponectin [2]; after 24 weeks cysteamine therapy, baseline 73.7%, P=0.03) was “decreased” and the “total adiponectin change between 24-week and 40-week timepoints” value (adiponectin [2]; after discontinuing therapy at 24 weeks, P=0.01) was “significant decrease”. The “mean percent increase of total adiponectin from baseline” value (adiponectin [2]; all subjects, 0-24 weeks oral EC-cysteamine, P=0.05) was “significantly increased”, the “IA (Ischemic Area)” value ([3]; MEAN of 3 mice) was 7.99 and the “IA/LV (cysteamine) (%)” value ([3]; MEAN of 3 mice, control 17.66%) was 8.12%. The “IA/AAR (cysteamine) (%)” value ([3]; MEAN of 3 mice, control 58.57%) was 33.24%, the “mean end diastolic volume (EDV), 24 h vs 72 h” value ([3]; cysteamine group, p=0.032) was “significant difference; also recorded: significant reduction” and the “relative amounts of ischemic damage compared with control groups” value ([3]; cysteamine treated vs control) was “about half”. The “IA/AAR (cysteamine) (%)” value ([3]; individual mice (raw data)) was 38.02% and 34.78% and 26.92%, the “IA/LV (cysteamine) (%)” value ([3]; individual mice (raw data)) was 12.66% and 6.24% and 5.47% and the “IA (Ischemic Area)” value ([3]; individual mice (raw data), cysteamine 60 mg/kg twice daily) was 9.37 and 11.14 and 3.46. For the same compound, the “IA/AAR ratio, cysteamine vs control group” value ([3]; p=0.004) was “significant reduction; also recorded: significant difference”, the “IA/LV ratio, cysteamine vs control group” value ([3]; p=0.008) was “significant reduction; also recorded: significant difference” and the “percentage change in ESV between 24 h and 72 h, vs control group” value ([3]; p=0.039) was “significantly greater percentage reduction”. The “percentage change in EDV between 24 h and 72 h, vs control group” value ([3]; p=0.04) was “significantly greater percentage reduction; also recorded: significant difference”.
